In the NIST ThermoML archive (doi:10.1021/je1012857):

Assay: xn = mol fraction of the nth substance listed
Settings: 101 kPa, Liquid; for speed of sound: Sing-around technique in a fixed-path interferometer; for viscosity: Capillary tube (Ostwald / Ubbelohde) method

NCCN [ethane-1,2-diamine] + CCCCO
Settings	mass density [kg/m3]	speed of sound [m/s]	viscosity [mPa·s]
293.15 K, x1 = 0.0528	815.585	1279.7	–
293.15 K, x1 = 0.1135	822.116	1302.1	–
293.15 K, x1 = 0.1488	825.769	1315.9	–
293.15 K, x1 = 0.214	832.273	1341.7	–
293.15 K, x1 = 0.2602	836.674	1360.5	–
293.15 K, x1 = 0.3286	842.718	1387.1	–
293.15 K, x1 = 0.3985	848.216	1414.5	–
293.15 K, x1 = 0.5036	856.28	1456.5	–
293.15 K, x1 = 0.5965	863.365	1494.7	–
293.15 K, x1 = 0.7081	872.153	1543.9	–
293.15 K, x1 = 0.7931	879.359	1584.7	–
293.15 K, x1 = 0.8504	884.315	1613.6	–
293.15 K, x1 = 0.8979	888.772	1639.1	–
293.15 K, x1 = 0.936	892.567	1660.5	–
298.15 K, x1 = 0.0528	811.698	1262.9	2.609
298.15 K, x1 = 0.1135	818.144	1285	2.591
298.15 K, x1 = 0.1488	821.746	1298.6	2.584
298.15 K, x1 = 0.214	828.164	1324.3	2.53
298.15 K, x1 = 0.2602	832.509	1342.9	2.484
298.15 K, x1 = 0.3283	–	–	2.412
298.15 K, x1 = 0.3286	838.245	1368.8	–
298.15 K, x1 = 0.3985	843.943	1396.3	2.327
298.15 K, x1 = 0.5036	851.943	1437.7	2.184
298.15 K, x1 = 0.5965	858.974	1475.5	2.03
298.15 K, x1 = 0.7081	867.696	1523.9	1.842
298.15 K, x1 = 0.7931	874.839	1564.1	1.697
298.15 K, x1 = 0.8504	879.75	1592.5	1.604
298.15 K, x1 = 0.8979	884.168	1617.5	1.538
298.15 K, x1 = 0.936	887.932	1638.7	1.481
303.15 K, x1 = 0.0528	807.785	1245.9	2.298
303.15 K, x1 = 0.1135	814.153	1267.9	2.3
303.15 K, x1 = 0.1488	817.703	1281.4	2.292
303.15 K, x1 = 0.214	824.038	1306.8	2.245
303.15 K, x1 = 0.2602	828.329	1325.3	2.213
303.15 K, x1 = 0.3283	–	–	2.147
303.15 K, x1 = 0.3286	833.896	1350.9	–
303.15 K, x1 = 0.3985	839.656	1378.1	2.071
303.15 K, x1 = 0.5036	847.599	1419.1	1.942
303.15 K, x1 = 0.5965	854.57	1456.3	1.813
303.15 K, x1 = 0.7081	863.224	1504	1.648
303.15 K, x1 = 0.7931	870.306	1543.5	1.531
303.15 K, x1 = 0.8504	875.173	1571.4	1.448
303.15 K, x1 = 0.8979	879.552	1596.1	1.381
303.15 K, x1 = 0.936	883.288	1616.8	1.334
308.15 K, x1 = 0.0528	803.849	1228.5	2.001
308.15 K, x1 = 0.1135	810.137	1250.7	2.009
308.15 K, x1 = 0.1488	813.64	1264.3	1.995
308.15 K, x1 = 0.214	819.892	1289.5	1.954
308.15 K, x1 = 0.2602	824.133	1307.8	1.923
308.15 K, x1 = 0.3283	–	–	1.866
308.15 K, x1 = 0.3286	829.828	1333.6	–
308.15 K, x1 = 0.3985	835.352	1360	1.798
308.15 K, x1 = 0.5036	843.235	1400.4	1.697
308.15 K, x1 = 0.5965	850.157	1437.1	1.601
308.15 K, x1 = 0.7081	858.739	1484.2	1.471
308.15 K, x1 = 0.7931	865.762	1523	1.377
308.15 K, x1 = 0.8504	870.584	1550.5	1.314
308.15 K, x1 = 0.8979	874.924	1574.8	1.25
308.15 K, x1 = 0.936	878.628	1595.3	1.198
313.15 K, x1 = 0.0528	799.876	1210.7	–
313.15 K, x1 = 0.1135	806.088	1233.6	–
313.15 K, x1 = 0.1488	809.548	1247.2	–
313.15 K, x1 = 0.214	815.723	1272.3	–
313.15 K, x1 = 0.2602	819.91	1290.4	–
313.15 K, x1 = 0.3286	825.879	1315.8	–
313.15 K, x1 = 0.3985	831.025	1341.9	–
313.15 K, x1 = 0.5036	838.849	1381.7	–
313.15 K, x1 = 0.5965	845.718	1418.1	–
313.15 K, x1 = 0.7081	854.232	1464.4	–
313.15 K, x1 = 0.7931	861.194	1502.7	–
313.15 K, x1 = 0.8504	865.971	1529.7	–
313.15 K, x1 = 0.8979	870.277	1553.1	–
313.15 K, x1 = 0.936	873.95	1573.7	–
